Assay results as given in the supplement of paper PMC3974653.
Structures can show the parent of a compound that is named as a salt.

How the values were obtained:
[1] = system: MTT (mouse pheochromocytoma); experiment: efficacy (maximal response) relative to doxorubicin = -100% and DMSO = 0%; higher = less inhibition of viability; details: (24 or 48 h)
[2] = system: MTT (mouse pheochromocytoma); experiment: IC50 of cell viability (ATP content); AC50 where efficacy is positive; details: (24 or 48 h)

IC50 of cell viability [2]	Compound	efficacy [1]
2.37 µM	O=C(CCCCCCC(=O)Nc1ccccc1)NO [SUBEROYLANILIDE HYDROXAMIC ACID]	-58.6%
8.41 µM	C[n+]1cc2c3c(ccc2c2ccc4cc5c(cc4c21)OCO5)OCO3 [Sanguinarine]	-87.7%
15 µM	CN[C@H]1CC[C@@H](c2ccc(Cl)c(Cl)c2)c2ccccc21 [Sertraline hydrochloride (Zoloft)]	-39.9%
0.841 µM	CC(C)COC(=O)OCN1C(=O)CN(CCN2CC(=O)N(COC(=O)OCC(C)C)C(=O)C2)CC1=O [Sobuzoxane]	-56.1%
0.0531 µM	O=C(CCCCCCC(=O)Nc1ccccc1)NO [Suberoylanilide Hydroxamic Acid]	-43.5%
4.22 µM	O=c1n(CC2CO2)c(=O)n(CC2CO2)c(=O)n1CC1CO1 (configuration not stated) [TEROXIRONUM]	-43.7%
11.9 µM	CCOC(=O)c1c(N)sc2c1CCN(Cc1ccccc1)C2 [TINORIDINE HYDROCHLORIDE]	-45.5%
1.88 µM	C[N+]12CCCC[C@@H]1CCC(=C(c1cccs1)c1cccs1)C2 (some centres not stated) [TIQUIZIUM BROMIDE]	-51.7%
4.73 µM	Cl.CC[C@@]1(O)C(=O)OCC/2=C1/C=C/3N(CC4=C3N=C5C=CC(=C(CN(C)C)C5=C4)O)C2=O [TOPOTECAN HYDROCHLORIDE]	-89.7%
0.376 µM	COc1cc(NCc2ccc3nc(N)nc(N)c3c2C)cc(OC)c1OC [TRIMETREXATE GLUCURONATE]	-50.7%
2.37 µM	Cc1cc(-c2ccc(/N=N/c3c(S(=O)(=O)[O-])cc4cc(S(=O)(=O)[O-])cc(N)c4c3O)c(C)c2)ccc1/N=N/c1c(S(=O)(=O)[O-])cc2cc(S(=O)(=O)[O-])cc(N)c2c1O [TRYPAN BLUE]	-37.4%
9.44 µM	c1ccc2[nH]c(-c3cscn3)nc2c1 [Thiabendazole]	-40%
18.8 µM	OC[C@H]1O[C@@H](n2cnc3c(S)ncnc32)[C@H](O)[C@@H]1O [Thionosine]	-85.4%
26.6 µM	O=C(Nc1ccc(Br)cc1)c1cc(Br)c(Br)s1 [Tibrofan]	-64.5%
11.9 µM	CCCOc1ccc2nc(NC(=O)OC)sc2c1 [Tioxidazole]	-55.6%
26.6 µM	O=C(Nc1ccc(Cl)cc1)Nc1ccc(Cl)c(Cl)c1 [Triclocarban]	-121%
26.6 µM	COc1cc2c(Nc3ccc(Br)cc3F)ncnc2cc1OCC1CCN(C)CC1 [VANDETANIB]	-102%
16.8 µM	CCCCC(=O)OCC(=O)[C@]1(O)Cc2c(O)c3c(c(O)c2[C@H](OC2CC(NC(=O)C(F)(F)F)C(O)C(C)O2)C1)C(=O)c1c(OC)cccc1C3=O (some centres not stated) [Valrubicin]	-78%
2.11 µM	[Zn++].[O-]N1\C=C/C=C\C1=S.[O-]N2\C=C/C=C\C2=S [Zinc pyrithione]	-90.6%
23.7 µM	OCCN1CCN(CC/C=C2/c3ccccc3Sc3ccc(C(F)(F)F)cc32)CC1 [cis-(Z)-FLUPENTHIXOL]	-85.6%

Compound	IC50 of cell viability [2]	efficacy [1]
C[CH2][Hg][S]c1ccccc1C(=O)[O-].[Na+] [THIMEROSAL]	2.99 µM	-86.9%
